Data taken from patent publication EP1157694A1, “REMEDIAL AGENT FOR ERECTILE DYSFUNCTION” (Nissan Chemical Industries, Ltd., priority 1998, dated 2000).
Structures can show the parent of a compound that is named as a salt.

Key:
right atrium preparation = assay: Action on isolated cardiac muscle of guinea-pig: number of beats of right atrium preparation; settings: for action on the heart relative to the action on the corpus cavernosum: EC30 heart compared with IC50 corpus cavernosum of Experimental example 2; for EC30 Heart rate: number of beats, 30% of isoproterenol maximum reaction
Experimental: After sacrificing male Hartley guinea-pigs by venesection, the heart was isolated and transferred to Krebs-Henseleit solution was adequately aerated with a 95% O2/5% CO2. After promptly separating the heart into the atria and ventricles, a papillary muscle preparation from the right ventricle and a right atrium preparation were prepared. Each preparation was suspended from an FD pickup (TB-611T, Nihon Koden) at a resting tension of 0.5 g (about 5 mN) for the load in a nutrient solution consisting of organ bath maintained at 31°C. Automatic contraction of the right atrium amplified by a carrier amplifier (AP-600G, Nihon Koden) followed by recording tension and the number of beats on a recorded by means of an instantaneous heart rate counter (AT600G, Nihon Koden). For the papillary muscle, a rectangular wave electrical stimulus was applied by an electrical stimulator (SEN-3201, Nihon Koden) through bipolar platinum electrodes followed by amplification of the resulting tension by a carrier amplifier (AP-600G, Nihon Koden) and recording on a recorder. The right atrium preparations were equilibrated by replacing the nutrient solution twice every 20 minutes followed by confirmation of the reactivity of each preparation by observing the number of beats in the presence of 0.1 µmol/L of isoproterenol. After the number of beats had stabilized, the preparations were washed by replacing the nutrient solution and additionally equilibrated by replacing the nutrient solution twice every 20 minutes. Each drug was administered cumulatively followed by observing the reaction. Drug action was evaluated by determining the rate of change caused by the drug by taking the difference between the maximum reaction induced by isoproterenol and that before drug administration to be 100%, and then calculating the EC30 value as the concentration at which drug action was 30% with respect to the number of beats based on this rate of change.

[1] = test system: isolated corpus cavernosum of rabbit; assay: Relaxation on norepinephrine-induced contraction in isolated corpus cavernosum of rabbit; settings: for IC50: Oryctolagus cuniculus; for attenuation of action by pre-treatment with L-NAME: L-NAME (1 mmol/L)
From the text: (§1) Rabbits were sacrificed by venesection following severing of the carotid artery under sodium pentobarbital anesthesia. The penis was immediately isolated and transferred into Krebs-Henseleit solution (composition (mmol/L): NaCl 118.4, KCl 4.7, CaCl2 2.5, MgSO4 1.2, KH2PO4 1.2, NaHCO3 25.0, glucose 11.1), which was adequately aerated with a 95% O2/5% CO2. After cutting away the connective tissue, the penis was severed longitudinally into two sections so that half of the urethra was present in each section by using an extension of the midline as the boundary. Each preparation was suspended from an FD pickup (TB-611T, Nihon Koden) at a resting tension of 0.5 g (about 5 mN) for the load in a nutrient solution consisting of 20 ml of organ bath maintained at 37°C. Contraction was recorded as the isometric contraction on a thermal pen writing recorder (WT-685G, Nihon Koden) following amplification by a carrier amplifier (AP-621G, Nihon Koden). After replacing the nutrient solution twice every 20 minutes and allowing to equilibrate, reactivity was confirmed for each preparation by observing the contraction to 1 µmol/L of norepinephrine. After contraction stabilized, the preparation was washed by replacing the nutrient solution, after which the solution was additionally replaced twice every 20 minutes and acceptable to equilibrate.
To begin with, each preparation was contracted by norepinephrine (final concentration: 1 µmol/L). The preparation for which stable tension was obtained at this time was used in the experiment. Each drug was administered cumulatively in 10-fold ratios followed by observation of the reaction. The maximum relaxation reaction was determined by application of papaverine hydrochloride (final concentration: 100 µmol/L).
The inhibition rate at each concentration was calculated by taking the tension during addition of norepinephrine to represent an inhibition rate of 0%, and the tension during the maximum relaxation reaction induced by addition of papaverine hydrochloride to represent an inhibition rate of 100%, followed by calculation of the concentration value at which the inhibition rate was 50% (IC50).

[2] = test system: papillary muscle preparation from the right ventricle; assay: Action on isolated cardiac muscle of guinea-pig: force of contraction of papillary muscle preparation; settings: 30% of isoproterenol maximum reaction
Experimental: After sacrificing male Hartley guinea-pigs by venesection, the heart was isolated and transferred to Krebs-Henseleit solution was adequately aerated with a 95% O2/5% CO2. After promptly separating the heart into the atria and ventricles, a papillary muscle preparation from the right ventricle and a right atrium preparation were prepared. Each preparation was suspended from an FD pickup (TB-611T, Nihon Koden) at a resting tension of 0.5 g (about 5 mN) for the load in a nutrient solution consisting of organ bath maintained at 31°C. Automatic contraction of the right atrium amplified by a carrier amplifier (AP-600G, Nihon Koden) followed by recording tension and the number of beats on a recorded by means of an instantaneous heart rate counter (AT600G, Nihon Koden). […] Drug action was evaluated by determining the rate of change caused by the drug by taking the difference between the maximum reaction induced by the second administration of isoproterenol and that before drug administration to be 100%, and then calculating the EC30 value as the concentration at which drug action was 30% with respect to force of contraction based on this rate of change.

[3] = test system: isolated thoracic aorta of rabbit; assay: Relaxation on norepinephrine-induced contraction in isolated thoracic aorta of rabbit; settings: for IC50: Oryctolagus cuniculus
From the text: as §1, with “equilibrate. To begin with, each preparation was contracted by norepinephrine (final concentration: 1 µmol/L). The preparation for which stable tension was obtained at this time was used in the experiment. Each drug was administered cumulatively in 10-fold ratios followed by observation of the reaction. The maximum relaxation reaction was determined by application of papaverine hydrochloride (final concentration: 100 µmol/L). The inhibition rate at each concentration was calculated by taking the tension during addition of norepinephrine to represent an inhibition rate of 0%, and the tension during the maximum relaxation reaction induced by addition of papaverine hydrochloride to represent an inhibition rate of 100%, followed by calculation of the concentration value at which the inhibition rate was 50% (IC50). The procedure was performed in the same manner as Experimental Example 2 with the exception of isolating the thoracic aorta and preparing in the form of a […] strip, and using 1 g (about 10 mN) of resting tension for the load.” for “equilibrate.”

[4] = Activity on intracavernous pressure by intracavernous injection to anesthetized dogs; format: in vivo
Experimental: Male beagle dogs having body weights of about 10 kg were anesthetized by intravenous administration of sodium pentobarbital at 35 mg/kg followed by immobilizing the animals in the dorsal position on a heating mat (SMS-2000J, Medical System Inc.) and inserting a. cannula into the trachea. A 23G winged needle for measuring internal pressure was inserted into the right corpus cavernosum, and intracavernous pressure was measured with a blood pressure measurement amplifier (AP-641G, Nihon Koden) by means of a pressure transducer (Statham P-50, Gould Co.). Moreover, a 23G winged needle for administration of drug was inserted into the right corpus cavernosum of the base followed by intracavernous injection of sodium nitroprusside (SNP, 10^-4 or 10^-3 mol/L, 0.5 ml) followed by administration of drug at the stage an increase in intracavernous pressure was confirmed. It should be noted that Compound A and milrinone were prepared with dimethyl sulfoxide-ethanol-physiological saline (1:2:30). […]
The activity of Compound A was assessed directly by administering at a volume of 0.5 ml starting from the lowest dose level at 0.243, 0.729, 2.43, 7.29, 24.3 and 72.9 µg/body (10^-6, 3 × 10^-6, 10^-5, 3 × 10^-5, 10^-4 and 3 × 10^-4 mol/L).
The effect of milrinone and zaprinast was assessed by concomitant administration of milrinone at 106 µg/body (10^-3 mol/L) and zaprinast at 136 µg/body (10^-3 mol/L) using a dosing volume of 0.5 ml each.
Intracavernous pressure was input into a polygraph (RM-6000, Nihon Koden), and together with continuously recording on a thermal pen recorder, was recorded and sampled on an external storage device (hard disk) of a computer (Macintosh Performa 5260, Apple) by means of a circulation kinetics analysis system (MP100WS, BIOPAC System) using circulation kinetics analysis software (MP/VAS 3 Ver. 1.0 beta 4.2, Physio-Tech Co., Ltd.). Maximum rate of change, duration and area under the curve (AUC) of intracavernous pressure were calculated using the circulation kinetics analysis software based on the resulting data. […]

[5] = direct relaxation, norepinephrine 1 µmol/L contraction
[6] = pre-treatment with L-NAME (1 mmol/L)
[7] = intracavernous injection, Dunnett's test vs solvent group

Q: Which results are given for Cc1[nH]c(=O)c(C#N)cc1-c1ccncc1 [Milrinone, milrinone, reference compound]?
A: action on the heart relative to the action on the corpus cavernosum (right atrium preparation): about 1/2; EC30 Heart rate (right atrium preparation): 11700 nM; IC50 [1, 5]: 5800 nM; EC30 Papillary muscle contraction force [2]: 33900 nM

Q: Which “action on the heart relative to the action on the corpus cavernosum” value (right atrium preparation) does the source give for Cl.O=c1[nH]nc(OCCCc2ccc(Cl)cc2)c(NCc2cccnc2)c1Br [Compound A, 4-bromo-6-[3-(4-chlorophenyl)propoxy]-5-(3-pyridylmethylamino)-3(2H)-pyridazinone hydrochloride] here?
A: less than 1/90

Q: What about the “EC30 Heart rate” value (right atrium preparation; hydrochloride) of the same compound?
A: >30000 nM

Q: What about the “action on the cavernous body relative to that on the aorta” value ([3]; IC50 aorta compared with IC50 corpus cavernosum) of the same compound?
A: about 8 times

Q: What about the IC50 ([3]; aorta, pre-treatment with SNP (1 nmol/L)) of the same compound?
A: 2710 nM

Q: And the IC50 ([3]; direct relaxation, norepinephrine 1 µmol/L contraction, aorta)?
A: 2650 nM

Q: What about the relaxation action ([3]; aorta, cumulative administration) of the same compound?
A: dose-dependent relaxation action

Q: What about the “effect of pre-treatment with SNP on action” value ([3]; aorta, SNP (1 nmol/L)) of the same compound?
A: completely unaffected

Q: What about the “attenuation of action by pre-treatment with L-NAME” value [1] of the same compound?
A: about one-half

Q: What about the IC50 [1, 5] of the same compound?
A: 330 nM

Q: And the IC50 [1, 6]?
A: 770 nM

Q: And the IC50 ([1]; pre-treatment with SNP (1 nmol/L))?
A: 150 nM

Q: What about the “enhancement of action by pre-treatment with SNP” value ([1]; SNP (1 nmol/L)) of the same compound?
A: about two-fold

Q: And the intracavernous pressure ([4]; intracavernous injection 0.243 to 72.9 µg/body (10^-6 to 3 × 10^-4 mol/L), after SNP)?
A: increased intracavernous pressure, nearly dose-dependently

Q: What about the “dose with significant effects on duration of intracavernous pressure” value [4, 7] of the same compound?
A: ≥ 2.43 µg/body

Q: And the “dose with significant effects on maximum rate of change of intracavernous pressure” value [4, 7]?
A: ≥ 2.43 µg/body

Q: What about the “EC30 Papillary muscle contraction force” value ([2]; hydrochloride) of the same compound?
A: >30000 nM

Q: For O=c1[nH]nc(OCCC(O)c2ccc(Cl)cc2)c(NCc2cccnc2)c1Br (stereo not drawn) [Compound B, 4-bromo-6-[3-(4-chlorophenyl)-3-hydroxypropoxy]-5-(3-pyridylmethylamino)-3(2H)-pyridazinone hydrochloride], which IC50 [1, 5] is on record?
A: 1590 nM

Q: Which “attenuation of action by pre-treatment with L-NAME” value [1] does the source give for CCCOc1ccccc1-c1nc2nn[nH]c2c(=O)[nH]1 [Zaprinast, zaprinast, reference compound] here?
A: 1/18

Q: What about the IC50 [1, 5] of the same compound?
A: 5500 nM

Q: And the IC50 [1, 6]?
A: > 100000 nM
